According to article PMC8279416, “Structural Fine-Tuning of Desmuramylpeptide NOD2 Agonists Defines Their In Vivo Adjuvant Activity” (Journal of Medicinal Chemistry, 2021):
Values joined by “and” are separate entries in the source; they are usually repeats but may differ in a detail not shown here. Equal entries are not always repeated.

Biological target: T1, NOD2 (Homo sapiens, UniProt Q9HC29)
T1 construct: host or cells: HEK-Blue NOD2 cells (HEK293-derived)
Assay: HEK-Blue NOD2 cell line reporter assay (NF-κB-inducible SEAP)
Type: cell-based
Conditions: for NOD2 activity at 2 μM (fold increase): NF-κB transcriptional (SEAP) activity relative to 0.1% DMSO; for NOD2 activation (in words): compound alone; for Decrease of NOD2 agonistic activity/potency by a factor, relative to 1: ratio of EC50 versus compound 1
Method: To determine the NOD2 agonistic potential of the synthesized desmuramylpeptides at the cellular level, we used the validated and commercially available HEK-Blue NOD2 cell line reporter assay. HEK-Blue NOD2 cells were first treated for 18 h with MDP, 1, or the novel desmuramylpeptides at 2 μM. The NF-κB transcriptional activity measured was normalized to that of the vehicle treated (0.1% DMSO) control HEK-Blue NOD2 cells.
HEK-Blue NOD2 and NOD1 cell line reporter assays are derived from HEK293 cells by cotransfection of the hNOD2 or hNOD1 genes, respectively, and an NF-κB-inducible secreted embryonic alkaline phosphatase (SEAP) reporter gene. Following activation of NOD2 or NOD1, the resulting NF-κB induces production of SEAP, the levels of which can be quantified colorimetrically. […] After 18 h of incubation (37 °C, 5% CO2), secreted embryonic alkaline phosphatase (SEAP) activity was determined spectrophotometrically as absorbance at 630 nm (BioTek Synergy microplate reader; Winooski, VT, U.S.A.). EC50 values were calculated using Prism software (version 9; GraphPad Software, CA, U.S.A.). For determination of specificity, HEK-Blue NOD2 cells (2.5 × 10^5 cells/mL) were first pretreated for 1 h with a 10 μM NOD2 antagonist, before the addition of the compounds (2 μM), with incubation for 18 h. SEAP activity in the supernatants was determined as above. The experiments were run in duplicate and repeated as at least two independent biological replicates.

[1] = HEK-Blue NOD2 cells, 18 h, mean ± SEM
[2] = HEK-Blue NOD2 cells, 18 h, 7 or 8 concentrations 1 nM to 20 μM, mean ± SEM

T1 sequence (Q9HC29 whole entry): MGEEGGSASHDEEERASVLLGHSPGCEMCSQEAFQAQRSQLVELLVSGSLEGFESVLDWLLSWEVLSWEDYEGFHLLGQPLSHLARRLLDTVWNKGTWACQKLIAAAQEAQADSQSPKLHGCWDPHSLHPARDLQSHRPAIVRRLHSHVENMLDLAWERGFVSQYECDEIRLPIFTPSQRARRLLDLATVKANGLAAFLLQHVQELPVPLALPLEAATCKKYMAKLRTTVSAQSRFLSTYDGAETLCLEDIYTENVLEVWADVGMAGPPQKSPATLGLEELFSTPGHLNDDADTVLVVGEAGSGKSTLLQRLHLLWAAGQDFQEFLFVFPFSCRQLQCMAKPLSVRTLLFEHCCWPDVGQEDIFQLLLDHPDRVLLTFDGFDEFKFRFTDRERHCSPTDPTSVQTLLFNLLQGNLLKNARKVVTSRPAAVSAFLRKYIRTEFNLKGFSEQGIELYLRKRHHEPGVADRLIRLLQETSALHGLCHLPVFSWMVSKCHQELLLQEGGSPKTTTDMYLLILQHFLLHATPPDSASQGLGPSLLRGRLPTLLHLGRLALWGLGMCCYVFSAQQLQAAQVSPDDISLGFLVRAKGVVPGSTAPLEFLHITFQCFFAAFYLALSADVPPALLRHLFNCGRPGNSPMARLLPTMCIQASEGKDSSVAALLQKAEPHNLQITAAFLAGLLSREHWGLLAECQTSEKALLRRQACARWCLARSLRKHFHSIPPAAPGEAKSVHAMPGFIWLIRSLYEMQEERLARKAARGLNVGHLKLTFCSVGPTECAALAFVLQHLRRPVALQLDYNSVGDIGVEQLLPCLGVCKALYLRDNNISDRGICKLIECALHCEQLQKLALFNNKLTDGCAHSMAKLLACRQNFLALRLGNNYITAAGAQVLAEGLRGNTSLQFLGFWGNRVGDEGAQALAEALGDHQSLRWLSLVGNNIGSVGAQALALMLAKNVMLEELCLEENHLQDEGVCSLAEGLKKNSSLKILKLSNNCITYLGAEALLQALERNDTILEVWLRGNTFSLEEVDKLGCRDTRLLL

COc1cc(/C=C/C(=O)NCC(=O)N[C@H](C(=O)N[C@H](CCC(=O)OC(C)(C)C)C(=O)N(C)OC)C(C)C)ccc1O [Compound 63, tert-Butyl (R)-4-((S)-2-(2-((E)-3-(4-Hydroxy-3-methoxyphenyl)acrylamido)acetamido)-3-methylbutanamido)-5-(methoxy(methyl)amino)-5-oxopentanoate]
NOD2 activity at 2 μM (fold increase) [1]: 1.36 ± 0.05 fold increase

CCOC(=O)CC[C@@H](NC(=O)[C@@H](NC(=O)CNC(=O)/C=C/c1ccc(OC)c(OC)c1)C(C)C)C(=O)OCC [Compound 20, Diethyl ((E)-3-(3,4-Dimethoxyphenyl)acryloyl)glycyl-L-valyl-D-glutamate]
NOD2 activity at 2 μM (fold increase) [1]: 2.64 ± 0.01 fold increase
EC50 [2]: 763 ± 88 nM

CCCCCCCCCCCC(=O)Oc1ccc(/C=C/C(=O)NCC(=O)N[C@H](C(=O)N[C@H](CCC(=O)OC2CCCC2)C(=O)OC2CCCC2)C(C)C)cc1OC [Compound 77, Dicyclopentyl ((E)-3-(4-(Dodecanoyloxy)-3-methoxyphenyl)acryloyl)glycyl-L-valyl-D-glutamate]
NOD2 activity at 2 μM (fold increase) [1]: 2.56 ± 0.12 fold increase
EC50 [2]: 243 ± 50 nM

COc1cc(/C=C/C(=O)NCC(=O)N[C@H](C(=O)N[C@H](CCC(=O)OC2CCCC2)C(=O)OC2CCCC2)C(C)C)ccc1OC(C)=O [Compound 76, Dicyclopentyl ((E)-3-(4-Acetoxy-3-methoxyphenyl)acryloyl)glycyl-L-valyl-D-glutamate]
NOD2 activity at 2 μM (fold increase) [1]: 2.67 ± 0.25 fold increase
EC50 [2]: 63 ± 0.2 nM

CCCCNC(=O)CC[C@@H](NC(=O)[C@@H](NC(=O)CNC(=O)/C=C/c1ccc(O)c(OC)c1)C(C)C)C(=O)NCCCC [Compound 58, (R)-N^1,N^5-Dibutyl-2-((S)-2-(2-((E)-3-(4-hydroxy-3-methoxyphenyl)acrylamido)acetamido)-3-methylbutanamido)pentanediamide]
NOD2 activity at 2 μM (fold increase) [1]: 1.30 ± 0.03 fold increase

CCNC(=O)CC[C@@H](NC(=O)[C@@H](NC(=O)CNC(=O)/C=C/c1ccc(O)c(OC)c1)C(C)C)C(=O)NCC [Compound 57, (R)-N^1,N^5-Diethyl-2-((S)-2-(2-((E)-3-(4-hydroxy-3-methoxyphenyl)acrylamido)acetamido)-3-methylbutanamido)pentanediamide]
NOD2 activity at 2 μM (fold increase) [1]: 1.45 ± 0.05 fold increase
NOD2 activation (in words) (HEK-Blue NOD2 cells): substantially diminished activity

CCOC(=O)CC[C@@H](NC(=O)[C@@H](NC(=O)CNC(=O)CCc1ccc(O)c(OC)c1)C(C)C)C(=O)OCC [Compound 18, Diethyl (3-(4-Hydroxy-3-methoxyphenyl)propanoyl)glycyl-L-valyl-D-glutamate]
EC50 (HEK-Blue NOD2 cells): 6160 nM
NOD2 activity at 2 μM (fold increase) [1]: 1.97 ± 0.05 fold increase
EC50 [2]: 6160 ± 842 nM
Decrease of NOD2 agonistic activity/potency by a factor, relative to 1: 70

CCOC(=O)CC[C@@H](NC(=O)[C@@H](NC(=O)CNC(=O)/C=C/c1ccc(O)c(OC)c1)[C@@H](C)O)C(=O)OCC [Compound 32, Diethyl ((E)-3-(4-Hydroxy-3-methoxyphenyl)acryloyl)glycyl-L-threonyl-D-glutamate]
NOD2 activity at 2 μM (fold increase) [1]: 1.54 ± 0.02 fold increase
EC50 [2]: 12500 ± 1220 nM

CCOC(=O)CC[C@@H](NC(=O)[C@@H](NC(=O)CNC(=O)C1CC1c1ccc(F)c(F)c1)C(C)C)C(=O)OCC (stereo partly shown) [Compound 29]
NOD2 activity at 2 μM (fold increase) [1]: 2.63 ± 0.10 fold increase
EC50 [2]: 49 ± 3 nM

CCOC(=O)[C@@H](CCC(=O)N[C@@H](CCCCN)C(=O)OC)NC(=O)[C@@H](NC(=O)CNC(=O)/C=C/c1ccc(O)c(OC)c1)C(C)C [Compound 41, Methyl ((R)-5-Ethoxy-4-((S)-2-(2-((E)-3-(4-hydroxy-3-methoxyphenyl)acrylamido)acetamido)-3-methylbutanamido)-5-oxopentanoyl)-L-lysinate]
EC50 (HEK-Blue NOD2 cells): 10200 nM
NOD2 activity at 2 μM (fold increase) [1]: 1.86 ± 0.02 fold increase
EC50 [2]: 10200 ± 2620 nM

CCCCCCCCCCCCCCCCCCOC(=O)CC[C@@H](NC(=O)[C@@H](NC(=O)CNC(=O)/C=C/c1ccc(O)c(OC)c1)C(C)C)C(=O)OCCCCCCCCCCCCCCCCCC [Compound 72, Dioctadecyl ((E)-3-(4-Hydroxy-3-methoxyphenyl)acryloyl)glycyl-L-valyl-D-glutamate]
NOD2 activity at 2 μM (fold increase) [1]: 1.32 ± 0.02 fold increase
NOD2 activation (in words) (HEK-Blue NOD2 cells): almost completely abrogated the NOD2 agonistic activity

CCOC(=O)CC[C@@H](NC(=O)[C@@H](NC(=O)CNC(=O)CCCc1ccc(O)c(OC)c1)C(C)C)C(=O)OCC [Compound 19, Diethyl (4-(4-Hydroxy-3-methoxyphenyl)butanoyl)glycyl-L-valyl-D-glutamate]
NOD2 activity at 2 μM (fold increase) [1]: 1.73 ± 0.01 fold increase
EC50 [2]: 13900 ± 800 nM
Decrease of NOD2 agonistic activity/potency by a factor, relative to 1: 156

COc1cc(/C=C/C(=O)NCC(=O)N[C@H](C(=O)N[C@H](CCC(=O)OC(C)(C)C)C(=O)OC(C)(C)C)C(C)C)ccc1O [Compound 56, Di-tert-butyl ((E)-3-(4-Hydroxy-3-methoxyphenyl)acryloyl)glycyl-L-valyl-D-glutamate]
NOD2 activity at 2 μM (fold increase) [1]: 1.20 ± 0.10 fold increase
NOD2 activation (in words) (HEK-Blue NOD2 cells): markedly reduced NOD2 activation

CCOC(=O)CC[C@@H](NC(=O)[C@@H](NC(=O)CNC(=O)[C@H]1C[C@@H]1c1ccc(F)c(F)c1)C(C)C)C(=O)OCC [Compound 29a]
NOD2 activity at 2 μM (fold increase) [1]: 2.46 ± 0.12 fold increase
EC50 [2]: 66 ± 5 nM

CCOC(=O)CC[C@@H](NC(=O)[C@@H](NC(=O)CNC(=O)[C@@H]1C[C@H]1c1ccc(F)c(F)c1)C(C)C)C(=O)OCC [Compound 29b]
NOD2 activity at 2 μM (fold increase) [1]: 2.71 ± 0.05 fold increase
EC50 [2]: 39 ± 1 nM

COc1cc(/C=C/C(=O)NCC(=O)N[C@H](C(=O)N[C@H](CCC(=O)OC(C)(C)C)C(=O)N2CCCC2)C(C)C)ccc1O [Compound 64, tert-Butyl (R)-4-((S)-2-(2-((E)-3-(4-Hydroxy-3-methoxyphenyl)acrylamido)acetamido)-3-methylbutanamido)-5-oxo-5-(pyrrolidin-1-yl)pentanoate]
NOD2 activity at 2 μM (fold increase) [1]: 1.33 ± 0.03 fold increase

COc1cc(/C=C/C(=O)NCC(=O)N[C@H](C(=O)N[C@H](CCC(=O)N2CCCC2)C(=O)OC(C)(C)C)C(C)C)ccc1O [Compound 62, tert-Butyl (R)-2-((S)-2-(2-((E)-3-(4-Hydroxy-3-methoxyphenyl)acrylamido)acetamido)-3-methylbutanamido)-5-oxo-5-(pyrrolidin-1-yl)pentanoate]
NOD2 activity at 2 μM (fold increase) [1]: 1.43 ± 0.01 fold increase

COc1cc(/C=C/C(=O)NCC(=O)N[C@H](C(=O)N[C@H](CCC(=O)N(C)OC)C(=O)OC(C)(C)C)C(C)C)ccc1O [Compound 61, tert-Butyl N^2-((E)-3-(4-Hydroxy-3-methoxyphenyl)acryloyl)glycyl-L-valyl-N^5-methoxy-N^5-methyl-D-glutaminate]
NOD2 activity at 2 μM (fold increase) [1]: 1.33 ± 0.03 fold increase

CCOC(=O)CC[C@@H](NC(=O)[C@@H](NC(=O)CNC(=O)C1CC1c1ccc(O)c(OC)c1)C(C)C)C(=O)OCC (stereo partly drawn) [Compound 28, Diethyl (2-(4-Hydroxy-3-methoxyphenyl)cyclopropane-1-carbonyl)glycyl-L-valyl-D-glutamate]
NOD2 activity at 2 μM (fold increase) [1]: 2.66 ± 0.07 fold increase
EC50 [2]: 369 ± 4 nM
Decrease of NOD2 agonistic activity/potency by a factor, relative to 1: 4

CCCCCCCCCCCC(=O)O [lauric acid, reference compound]
NOD2 activation (in words) (HEK-Blue NOD2 cells): did not show any NOD2 activation alone
Enhancement of the NOD2 agonistic activity of 1 (HEK-Blue NOD2 cells, in combination with 1, data not shown): did not enhance the NOD2 agonistic activity of 1

CCOC(=O)CC[C@@H](NC(=O)[C@H](CO)NC(=O)CNC(=O)/C=C/c1ccc(O)c(OC)c1)C(=O)OCC [Compound 31, Diethyl ((E)-3-(4-Hydroxy-3-methoxyphenyl)acryloyl)glycyl-L-seryl-D-glutamate]
NOD2 activity at 2 μM (fold increase) [1]: 1.21 fold increase and 1.21 ± 0.08 fold increase
EC50 [2]: > 20000 nM

CCCCCCCCCCCCCCCCCC(=O)Oc1ccc(/C=C/C(=O)NCC(=O)N[C@@H](CO)C(=O)N[C@H](CCC(=O)OCC)C(=O)OCC)cc1OC [Compound 80, Diethyl ((E)-3-(3-Methoxy-4-(stearoyloxy)phenyl)acryloyl)glycyl-L-seryl-D-glutamate]
NOD2 activity at 2 μM (fold increase) [1]: 1.21 fold increase and 1.21 ± 0.06 fold increase

CCOC(=O)CC[C@@H](NC(=O)[C@@H](NC(=O)CNC(=O)/C=C/c1ccc([N+](=O)[O-])cc1)C(C)C)C(=O)OCC [Compound 26, Diethyl ((E)-3-(4-Nitrophenyl)acryloyl)glycyl-L-valyl-D-glutamate]
NOD2 activity at 2 μM (fold increase) [1]: 3.02 ± 0.07 fold increase
EC50 [2]: 49 ± 4 nM

CCCCCCCCCCCCCCCCCC(=O)Oc1ccc(/C=C/C(=O)NCC(=O)N[C@@H](COCc2ccccc2)C(=O)N[C@H](CCC(=O)OCC)C(=O)OCC)cc1OC [Compound 79, Diethyl O-Benzyl-N-(((E)-3-(3-methoxy-4-(stearoyloxy)phenyl)acryloyl)glycyl)-L-seryl-D-glutamate]
NOD2 activity at 2 μM (fold increase) [1]: 1.68 fold increase and 1.68 ± 0.03 fold increase
